Measurements reported in patent publication US8802700B2 (Vertex Pharmaceuticals Incorporated, priority 2010, dated 2014).

Target: T1, ΔF508-CFTR (Homo sapiens, UniProt P13569, DEL508-508)
T1 construct: expressed in transfected cells
Experiment: Membrane potential optical assay (FRET voltage-sensor dyes, VIPR), identification of potentiator compounds
Assay type: cell-based
Conditions: Table 3; assay not given; read-out: % Activity (% Efficacy, relative efficacy)
Outline: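 NIH3T3 mouse fibroblasts stably expressing ΔF508-CFTR, cultured 24 h at 27 °C, were loaded with FRET voltage dyes CC2-DMPE and DiSBAC2(3). Double-addition format: first addition of Cl⁻-free (gluconate) medium with or without compound; membrane-potential change read as fluorescence on VIPR II.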

T1 sequence (P13569 with tags, fused parts or gaps DEL508-508): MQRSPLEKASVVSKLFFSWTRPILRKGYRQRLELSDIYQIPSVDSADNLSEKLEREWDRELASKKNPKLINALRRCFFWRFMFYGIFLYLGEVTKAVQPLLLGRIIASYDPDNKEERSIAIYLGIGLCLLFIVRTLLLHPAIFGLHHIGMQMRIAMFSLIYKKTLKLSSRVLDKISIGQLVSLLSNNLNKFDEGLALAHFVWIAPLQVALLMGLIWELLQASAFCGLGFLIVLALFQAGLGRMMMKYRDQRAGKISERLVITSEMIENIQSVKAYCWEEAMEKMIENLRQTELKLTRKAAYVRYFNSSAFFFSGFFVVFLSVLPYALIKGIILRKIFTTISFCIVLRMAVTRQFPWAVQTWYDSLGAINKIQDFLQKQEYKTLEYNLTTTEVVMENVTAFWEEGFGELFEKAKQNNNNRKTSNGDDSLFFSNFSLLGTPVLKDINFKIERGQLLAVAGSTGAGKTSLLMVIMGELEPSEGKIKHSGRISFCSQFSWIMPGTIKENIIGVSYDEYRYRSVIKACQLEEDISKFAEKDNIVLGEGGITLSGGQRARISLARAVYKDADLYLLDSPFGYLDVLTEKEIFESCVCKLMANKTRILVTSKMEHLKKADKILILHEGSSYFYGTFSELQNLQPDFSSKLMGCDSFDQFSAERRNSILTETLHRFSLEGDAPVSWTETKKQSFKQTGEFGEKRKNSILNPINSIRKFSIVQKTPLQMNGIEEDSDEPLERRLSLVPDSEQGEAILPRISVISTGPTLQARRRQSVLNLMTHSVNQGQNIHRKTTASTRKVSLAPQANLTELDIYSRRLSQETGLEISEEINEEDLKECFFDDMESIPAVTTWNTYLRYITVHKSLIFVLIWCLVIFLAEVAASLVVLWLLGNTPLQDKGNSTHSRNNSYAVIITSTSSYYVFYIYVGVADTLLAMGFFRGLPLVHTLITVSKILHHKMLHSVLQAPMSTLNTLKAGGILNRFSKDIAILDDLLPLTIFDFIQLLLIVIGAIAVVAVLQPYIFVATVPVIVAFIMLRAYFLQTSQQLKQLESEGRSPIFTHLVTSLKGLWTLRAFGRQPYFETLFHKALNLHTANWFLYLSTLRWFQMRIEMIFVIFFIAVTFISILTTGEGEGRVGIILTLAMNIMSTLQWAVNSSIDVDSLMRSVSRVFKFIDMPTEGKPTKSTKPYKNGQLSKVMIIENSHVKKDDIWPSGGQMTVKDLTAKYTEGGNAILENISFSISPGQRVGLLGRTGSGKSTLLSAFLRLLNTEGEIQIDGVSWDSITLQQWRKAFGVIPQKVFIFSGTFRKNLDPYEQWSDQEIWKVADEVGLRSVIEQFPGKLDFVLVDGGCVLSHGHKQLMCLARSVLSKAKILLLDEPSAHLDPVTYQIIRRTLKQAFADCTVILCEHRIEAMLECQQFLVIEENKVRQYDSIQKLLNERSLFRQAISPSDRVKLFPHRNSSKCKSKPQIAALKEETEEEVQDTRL

| SMILES | Emax [%] |
| --- | --- |
| CC(C)(C)c1cc(C(C)(C)C)c(NC(=O)c2c[nH]c3ccc(Cl)cc3c2=O)cc1O [Compound 623, 6-chloro-N-(5-hydroxy-2,4-ditert-butyl-phenyl)-4-oxo-1H-quinoline-3-carboxamide] | 25 to 100 |
| Cc1ccc2[nH]cc(C(=O)Nc3cc(O)c(C4(C)CCCCC4)cc3F)c(=O)c2c1 [Compound 624, N-[2-fluoro-5-hydroxy-4-(1-methylcyclohexyl)-phenyl]-6-methyl-4-oxo-1H-quinoline-3-carboxamide] | 25 to 100 |
| Cc1cccc2c(=O)c(C(=O)Nc3cc(O)c(C(C)(C)C)cc3F)c[nH]c12 [Compound 625, N-(2-fluoro-5-hydroxy-4-tert-butyl-phenyl)-8-methyl-4-oxo-1H-quinoline-3-carboxamide] | < 25 |
| Cc1cccc2[nH]cc(C(=O)Nc3ccc(N4CC[C@H](F)C4)cc3C(F)(F)F)c(=O)c12 [Compound 626, (S)-N-(4-(3-fluoropyrrolidin-1-yl)-2-(trifluoromethyl)phenyl)-5-methyl-4-oxo-1,4-dihydroquinoline-3-carboxamide] | 25 to 100 |
| CC(CO)(CO)c1ccc(NC(=O)c2c[nH]c3ccc(F)cc3c2=O)cc1 [Compound 627, 6-fluoro-N-[4-[2-hydroxy-1-(hydroxymethyl)-1-methyl-ethyl]phenyl]-4-oxo-1H-quinoline-3-carboxamide] | < 25 |
| O=C(Nc1ccc(OC(F)(F)F)cc1Cl)c1c[nH]c2ccccc2c1=O [Compound 628, N-[2-chloro-4-(trifluoromethoxy)phenyl]-4-oxo-1H-quinoline-3-carboxamide] | 25 to 100 |
| CC(C)(C)OC(=O)[C@@H]1CCCN1c1ccc(NC(=O)c2c[nH]c3ccccc3c2=O)c(C(F)(F)F)c1 [Compound 629, (S)-tert-butyl 1-(4-(4-oxo-1,4-dihydroquinoline-3-carboxamido)-3-(trifluoromethyl)phenyl)pyrrolidine-2-carboxylate] | 25 to 100 |
| O=C(Nc1cc(C(F)(F)F)ccc1C(F)(F)F)c1c[nH]c2ccccc2c1=O [Compound 630, N-[2,5-bis(trifluoromethyl)phenyl]-4-oxo-1H-quinoline-3-carboxamide] | 25 to 100 |
| COC(=O)[C@]1(C)CCCN1c1ccc(NC(=O)c2c[nH]c3ccccc3c2=O)c(C(F)(F)F)c1 [Compound 631, (S)-methyl 2-methyl-1-(4-(4-oxo-1,4-dihydroquinoline-3-carboxamido)-3-(trifluoromethyl)phenyl)pyrrolidine-2-carboxylate] | > 100 |
| CC(C)(C)c1cc2cc[nH]c2cc1NC(=O)c1c[nH]c2cc(OC(F)(F)F)ccc2c1=O [Compound 632, 4-oxo-N-(5-tert-butyl-1H-indol-6-yl)-7-(trifluoromethoxy)-1H-quinoline-3-carboxamide] | 25 to 100 |
| CC(C)(C)c1ccc(NC(=O)c2c[nH]c3cccc(O)c3c2=O)cc1O [Compound 633, 5-hydroxy-N-(3-hydroxy-4-tert-butyl-phenyl)-4-oxo-1H-quinoline-3-carboxamide] | 25 to 100 |
| O=C(Nc1ccc(N2CCC[C@H]2CO)cc1C(F)(F)F)c1c[nH]c2ccccc2c1=O [Compound 634, (S)-N-(4-(2-(hydroxymethyl)pyrrolidin-1-yl)-2-(trifluoromethyl)phenyl)-4-oxo-1,4-dihydroquinoline-3-carboxamide] | 25 to 100 |
| O=C(Nc1ccc(C(F)(F)F)cc1Cl)c1c[nH]c2cccc(O)c2c1=O [Compound 635, N-[2-chloro-4-(trifluoromethyl)phenyl]-5-hydroxy-4-oxo-1H-quinoline-3-carboxamide] | 25 to 100 |
| O=C(Nc1ccc(C(F)(F)F)cc1Cl)c1c[nH]c2ccc(F)cc2c1=O [Compound 636, N-[2-chloro-4-(trifluoromethyl)phenyl]-6-fluoro-4-oxo-1H-quinoline-3-carboxamide] | < 25 |
| Cc1cccc2c(=O)c(C(=O)Nc3ccc(C(C)C)cc3C(F)(F)F)c[nH]c12 [Compound 637, N-[4-isopropyl-2-(trifluoromethyl)phenyl]-8-methyl-4-oxo-1H-quinoline-3-carboxamide] | < 25 |
| CC(C)(C)c1cc(F)c(NC(=O)c2c[nH]c3c(C(F)(F)F)cccc3c2=O)cc1O [Compound 638, N-(2-fluoro-5-hydroxy-4-tert-butyl-phenyl)-4-oxo-8-(trifluoromethyl)-1H-quinoline-3-carboxamide] | < 25 |
| CC(C)N1CCN(c2ccc(NC(=O)c3c[nH]c4ccccc4c3=O)c(C(F)(F)F)c2)CC1 [Compound 639, N-[4-(4-isopropylpiperazin-1-yl)-2-(trifluoromethyl)phenyl]-4-oxo-1H-quinoline-3-carboxamide] | 25 to 100 |
| Cc1ccc2c(=O)c(C(=O)Nc3cc(O)c(C(C)(C)C)cc3C(C)(C)C)c[nH]c2c1 [Compound 640, N-(5-hydroxy-2,4-ditert-butyl-phenyl)-7-methyl-4-oxo-1H-quinoline-3-carboxamide] | > 100 |
| CCOc1cccc2c(=O)c(C(=O)Nc3cc4[nH]ccc4cc3C(C)(C)C)c[nH]c12 [Compound 641, 8-ethoxy-4-oxo-N-(5-tert-butyl-1H-indol-6-yl)-1H-quinoline-3-carboxamide] | < 25 |
| COc1ccc2c(=O)c(C(=O)Nc3ccc(N4CCC[C@@H]4C)cc3C(F)(F)F)c[nH]c2c1 [Compound 642, (S)-7-methoxy-N-(4-(2-methylpyrrolidin-1-yl)-2-(trifluoromethyl)phenyl)-4-oxo-1,4-dihydroquinoline-3-carboxamide] | 25 to 100 |
| Cc1cccc2[nH]cc(C(=O)Nc3ccc(N4CCCC(C)C4)cc3C(F)(F)F)c(=O)c12 (stereo not shown) [Compound 643, 5-methyl-N-[4-(3-methyl-1-piperidyl)-2-(trifluoromethyl)phenyl]-4-oxo-1H-quinoline-3-carboxamide] | 25 to 100 |
| Cc1cccc2c(=O)c(C(=O)Nc3cc4[nH]ccc4cc3C(C)(C)C)c[nH]c12 [Compound 644, 8-methyl-4-oxo-N-(5-tert-butyl-1H-indol-6-yl)-1H-quinoline-3-carboxamide] | < 25 |
| CC(C)(C)c1ccc(NC(=O)c2c[nH]c3ccccc3c2=O)cc1F [Compound 645, N-(3-fluoro-4-tert-butyl-phenyl)-4-oxo-1H-quinoline-3-carboxamide] | 25 to 100 |
| CC(C)(C)c1cc2cc[nH]c2cc1NC(=O)c1c[nH]c2cc(F)c(F)cc2c1=O [Compound 646, 6,7-difluoro-4-oxo-N-(5-tert-butyl-1H-indol-6-yl)-1H-quinoline-3-carboxamide] | 25 to 100 |
| Cc1cc(C2CCCCC2)ccc1NC(=O)c1c[nH]c2ccccc2c1=O [Compound 647, N-(4-cyclohexyl-2-methyl-phenyl)-4-oxo-1H-quinoline-3-carboxamide] | 25 to 100 |
| CCc1cc(C(C)(C)C)c(O)cc1NC(=O)c1c[nH]c2ccc(F)cc2c1=O [Compound 649, N-(2-ethyl-5-hydroxy-4-tert-butyl-phenyl)-6-fluoro-4-oxo-1H-quinoline-3-carboxamide] | 25 to 100 |
| O=C(Nc1ccc(C(F)(F)F)c(O)c1)c1c[nH]c2ccc(F)cc2c1=O [Compound 650, 6-fluoro-N-[3-hydroxy-4-(trifluoromethyl)phenyl]-4-oxo-1H-quinoline-3-carboxamide] | 25 to 100 |
| O=C(Nc1ccc(C2CCCCC2)c(O)c1)c1c[nH]c2ccc(F)cc2c1=O [Compound 651, N-(4-cyclohexyl-3-hydroxy-phenyl)-6-fluoro-4-oxo-1H-quinoline-3-carboxamide] | 25 to 100 |
